The values below come from ChEMBL document CHEMBL1121445, “Structure-activity analyzed by pattern recognition: the asymmetric case” (J Med Chem, 1980).

Active and inactive are the calls of the source. The calls are words filed in the database; no cut-off is given here.

One data set relates to Plasmodium berghei. The data set is described as follows: Antimalarial activity against Plasmodium berghei. Format: functional, organism-based.
Details: not given
Take `CCCCCOC1=CC(=O)C(=O)c2ccccc21`: the Activity entry is “Not toxic”.

Take `NC1=CC(=O)C(=O)c2cccnc21`: the Activity result is “Not toxic”.

Turning to `COc1ccc(/N=C2/C(Nc3ccc(OC)cc3)=CC(=O)c3ncccc32)cc1`, the Activity entry is “Not toxic”.

On to `O=C1C(=O)c2c(ccc3ccccc23)C(O)=C1CCCC1CCCCC1`, for which the Activity entry is “Not toxic”.

Turning to `CC(C)CCC1=C(Cl)C(=O)c2ccccc2C1=O`, the Activity entry was “Not toxic”.

Turning to `CCCCCCCCCC1=C(O)C(=O)c2sccc2C1=O`, the Activity result was “Not toxic”.

Regarding `CC1=C(CCC(C)C)C(=O)c2ccccc2C1=O`, the Activity result was “Not toxic”.

As for `COc1ccc(/N=C2/C(N)=CC(=O)c3ncccc32)cc1`, the Activity entry was “Not toxic”.

Consider `O=C1C(=O)c2ccc(O)cc2C(O)=C1CCCC1CCCCC1`, for which the Activity result is “Not toxic”.

As to `CCOC1=CC(=O)C(=O)c2ccccc21`, the Activity entry was “Not toxic”.

Regarding `Cc1ccc(NC2=C(Cl)C(=O)C(=O)c3cccnc32)cc1`, the Activity entry is “Not toxic”.

As for `CCCCCCCCCCC1=C(O)C(=O)c2ccc(Br)cc2C1=O`, the Activity entry was “Not toxic”.

Consider `NC1=CC(=O)c2ncccc2/C1=N\c1ccccc1`, for which the Activity entry was “Not toxic”.

With `CCCCCCCCCCC1=C(O)C(=O)c2ccc(OC)cc2C1=O`, the Activity entry is “Not toxic”.

Turning to `CCCC/N=C1\C=C(O)c2ncccc2C1=N`, the Activity entry was “Not toxic”.

Take `O=C1C(=O)c2cccnc2C(Nc2ccccc2)=C1Cl`: the Activity entry is “Not toxic”.

With `CC(C)CCC1=C(N)C(=O)c2ccccc2C1=O`, the Activity result is “Not toxic”.

Take `CCCCCCCCCCCC1=C(O)C(=O)C=C(O)C1=O` [EMBELIN]: the Activity result is “Not toxic”.

In the case of `Cc1ccc(/N=C2/C(N)=CC(=O)c3ncccc32)cc1C`, the Activity entry is “Not toxic”.

Take `NC1=CC(=O)c2ncccc2/C1=N\c1ccc(Cl)cc1`: the Activity result is “Not toxic”.

As for `CCCCCCCCCCCCCCCC/N=C1\C=C(O)c2ncccc2C1=O`, the Activity entry is “Not toxic”.

`CC1=C(O)C(=O)c2ccccc2C1=O`: the Activity entry was “Not toxic”.

In the case of `CCCCCCCCCCC1=C(O)C(=O)c2cc(OC)ccc2C1=O`, the Activity result is “Not toxic”.

Consider `CCOC(=O)c1ccc(/N=C2/C(Nc3ccc(C(=O)OCC)cc3)=CC(=O)c3ncccc32)cc1`, for which the Activity result was “Not toxic”.

Take `CCCC(C)COC1=CC(=O)C(=O)c2ccccc21` (stereo unspecified): the Activity entry was “Not toxic”.

As for `O=C1C(=O)C2=C(CCCC2)C(O)=C1CCCC1CCCCC1`, the Activity entry is “Not toxic”.

Turning to `CC(C)CCC1=CC(=O)c2ccccc2C1=O`, the Activity entry is “Not toxic”.

`Cc1ccc(/N=C2/C(Nc3ccc(C)c(C)c3)=CC(=O)c3ncccc32)cc1C`: the Activity result was “Not toxic”.

As to `O=C1C(=O)c2cc(Cl)ccc2C(O)=C1CCCCC1CCCCC1`, the Activity entry is “Not toxic”.

As for `O=C1C=C(Nc2ccc(Cl)cc2)/C(=N/c2ccc(Cl)cc2)c2cccnc21`, the Activity result was “Not toxic”.

Regarding `O=C(CCC1CCCCC1)C1=CC(=O)c2ccccc2C1=O`, the Activity result is “Not toxic”.

`CCCCCC/N=C1/C=C(O)C(=O)c2ccc(C)nc21`: the Activity result was “Not toxic”.

System in a further data set: not listed separately
The data set is described as follows: Partition coefficient (logP). The note with it: octanol/water. Format: physicochemical.
As usually defined, the logP is a log measure of how a compound divides between an organic and an aqueous phase. `CCCCCCCCCCCCCCCCCCSC1=C(O)C(=O)c2cccnc2C1=O` came in with a logP of 9.62.

Staying with this data set, now noted: octanol/water; read-out: logP.
Take `CCCCCOC1=CC(=O)C(=O)c2ccccc21`: the logP came to 3.38.

On to `O=C1C(=O)c2ncccc2C(O)=C1CCCCCCCCC1CCCCC1`, for which the log partition coefficient (logP) amounted to 6.5.

For the molecule `NC1=CC(=O)C(=O)c2cccnc21`, the logP was 1.2.

As to `CCCCCCCCCCCCCCCC1=C(O)C(=O)c2cccnc2C1=O`, the logP amounted to 7.5.

Turning to `CC(C)CCC1=C(O)C(=O)c2ccccc2C1=O`, the logP is 3.87.

As to `COc1ccc(/N=C2/C(Nc3ccc(OC)cc3)=CC(=O)c3ncccc32)cc1`, the logP was 4.5.

Take `O=C1C(=O)c2c(ccc3ccccc23)C(O)=C1CCCC1CCCCC1`: the logP amounted to 6.63.

With `CC(C)CCC1=C(Cl)C(=O)c2ccccc2C1=O`, the lipophilicity (logP) was found to be 4.64.

Take `CCCCCCCCCC1=C(O)C(=O)c2sccc2C1=O`: the logP is 5.06.

As for `CC1=C(CCC(C)C)C(=O)c2ccccc2C1=O`, the lipophilicity (logP) is 4.69.

Consider `COc1ccc(/N=C2/C(N)=CC(=O)c3ncccc32)cc1`, for which the logP was 1.5.

Turning to `O=C1C(=O)c2ccc(O)cc2C(O)=C1CCCC1CCCCC1`, the logP turned out to be 4.64.

As for `CCOC1=CC(=O)C(=O)c2ccccc21`, the logP came to 1.2.

Turning to `Cc1ccc(NC2=C(Cl)C(=O)C(=O)c3cccnc32)cc1`, the logP is 1.5.

Take `COc1ccc(NC2=CC(=O)C(=O)c3ccccc32)cc1`: the logP worked out at 1.9.

On to `O=C1C=C(NCCCCC2CCCCC2)c2ccccc2C1=O`, for which the logP was 6.11.

`CCCCCCCCCCC1=C(O)C(=O)c2ccc(Br)cc2C1=O`: the logP is 7.17.

Take `Cc1ccc2c(c1)C(=O)C(CCC(C)C)=C(O)C2=O`: the logP was determined as 4.26.

For the molecule `NC1=CC(=O)c2ncccc2/C1=N\c1ccccc1`, the logP was 1.5.

As to `CCCCCCCCCCCCCCSC1=C(O)C(=O)c2cccnc2C1=O`, the logP worked out at 8.62.

Consider `CCCCCCCCCCC1=C(O)C(=O)c2ccc(OC)cc2C1=O`, for which the logP came to 6.47.

As for `CCCCCCCCCCCCSC1=C(O)C(=O)c2cccnc2C1=O`, the logP is 6.62.

Take `CCCC/N=C1\C=C(O)c2ncccc2C1=N`: the lipophilicity (logP) stood at 1.5.

Regarding `O=C1C(=O)c2cccnc2C(Nc2ccccc2)=C1Cl`, the logP was found to be 1.3.

`CC(C)CCC1=C(N)C(=O)c2ccccc2C1=O`: the logP was found to be 4.37.

In the case of `CCCCCCCCCCCC1=C(O)C(=O)C=C(O)C1=O` [EMBELIN], the logP was 5.04.

Turning to `Cc1ccc(/N=C2/C(N)=CC(=O)c3ncccc32)cc1C`, the logP was 2.5.

Regarding `NC1=CC(=O)c2ncccc2/C1=N\c1ccc(Cl)cc1`, the logP was 2.5.

As for `Cc1ccc2c(c1)C(=O)C(O)=C(CCC(C)C)C2=O`, the logP came to 4.26.

In the case of `O=C1C(O)=C(CCCCCCCCC2CCCCC2)C(=O)c2ccccc21` [MENOCTONE], the logP came to 7.81.

Consider `CCCCCCCCCCCCCCCC/N=C1\C=C(O)c2ncccc2C1=O`, for which the logP was determined as 7.8.

As to `CCN(CC)CCCC/N=C1/C=C(O)C(=O)c2ccccc21`, the logP is 3.79.

Take `CC1=C(O)C(=O)c2ccccc2C1=O`: the logP turned out to be 0.2.

For `O=C1C(=O)c2ccccc2C(O)=C1CCCC1CCCCC1`, the logP turned out to be 5.31.

As to `CCCCCCCCCCC1=C(O)C(=O)c2cc(OC)ccc2C1=O`, the logP came out at 6.47.

On to `CCOC(=O)c1ccc(/N=C2/C(Nc3ccc(C(=O)OCC)cc3)=CC(=O)c3ncccc32)cc1`, for which the logP came to 4.5.

Consider `CCCCCN(CCCCC)CCC/N=C1/C=C(O)C(=O)c2ccccc21`, for which the logP was 5.47.

Take `CCCC(C)COC1=CC(=O)C(=O)c2ccccc21` (stereo unspecified): the logP was found to be 3.38.

Turning to `O=C1C(=O)C2=C(CCCC2)C(O)=C1CCCC1CCCCC1`, the logP was found to be 5.93.

As to `CC(C)CCC1=CC(=O)c2ccccc2C1=O`, the logP turned out to be 4.

As for `Cc1ccc(/N=C2/C(Nc3ccc(C)c(C)c3)=CC(=O)c3ncccc32)cc1C`, the logP is 5.6.

For the molecule `O=C1C(=O)c2cc(Cl)ccc2C(O)=C1CCCCC1CCCCC1`, the logP is 6.69.

Turning to `O=C1C=C(Nc2ccc(Cl)cc2)/C(=N/c2ccc(Cl)cc2)c2cccnc21`, the logP is 5.6.

In the case of `O=C(CCC1CCCCC1)C1=CC(=O)c2ccccc2C1=O`, the logP was 4.1.

Consider `CN(C)CCCN(C1=CC(=O)C(=O)c2ccccc21)c1ccccc1`, for which the logP is 3.4.

For the molecule `CCN(CC)C1=CC(=O)C(=O)c2ccccc21`, the log partition coefficient (logP) stood at 3.28.

With `CCCCCC/N=C1/C=C(O)C(=O)c2ccc(C)nc21`, the logP worked out at 1.5.

The next data set deals with Plasmodium berghei. The data set is described as follows: Antimalarial activity against Plasmodium berghei; Active. Format: functional, organism-based.
Details: not given
On to `O=C1C(=O)c2ncccc2C(O)=C1CCCCCCCCC1CCCCC1`, for which the outcome was Active.

Consider `CCCCCCCCCCCCCCCC1=C(O)C(=O)c2cccnc2C1=O`, for which the outcome was Active.

In the case of `CC(C)CCC1=C(O)C(=O)c2ccccc2C1=O`, the outcome was Active.

`COc1ccc(NC2=CC(=O)C(=O)c3ccccc32)cc1`: the result was Active.

Turning to `O=C1C=C(NCCCCC2CCCCC2)c2ccccc2C1=O`, the result was Active.

`Cc1ccc2c(c1)C(=O)C(CCC(C)C)=C(O)C2=O`: the result was Active.

Take `CCCCCCCCCCCCCCSC1=C(O)C(=O)c2cccnc2C1=O`: the result was Active.

For `CCCCCCCCCCCCSC1=C(O)C(=O)c2cccnc2C1=O`, the outcome was Active.

For `Cc1ccc2c(c1)C(=O)C(O)=C(CCC(C)C)C2=O`, the outcome was Active.

Take `O=C1C(O)=C(CCCCCCCCC2CCCCC2)C(=O)c2ccccc21` [MENOCTONE]: the result was Active.

Consider `CCN(CC)CCCC/N=C1/C=C(O)C(=O)c2ccccc21`, for which the outcome was Active.

Turning to `CCCCCCCCCCCCCCCCCCSC1=C(O)C(=O)c2cccnc2C1=O`, the result was Active.

As for `O=C1C(=O)c2ccccc2C(O)=C1CCCC1CCCCC1`, the outcome was Active.

On to `CCCCCN(CCCCC)CCC/N=C1/C=C(O)C(=O)c2ccccc21`, for which the result was Active.

Consider `CN(C)CCCN(C1=CC(=O)C(=O)c2ccccc21)c1ccccc1`, for which the result was Active.

As for `CCN(CC)C1=CC(=O)C(=O)c2ccccc21`, the result was Active.
